We go through 1 compound from patent US8694073B2, “Predicting efficacy of psychiatric treatment” (University of Utah Research Foundation, priority 2008, dated 2014).

Test [1] deals with TSH. Briefly: TSH level by solid-phase radioimmunoassay before treatment and at 4-weeks follow-up. It counts as in vivo, human. The note with it: MDD subjects n=19, after 4 weeks T3; baseline TSH 1.75 ± .71.
Test [2] concerns MDD subjects. In words: 4-week open T3 augmentation of SSRI, HAMD-17 depression rating. It is filed as in vivo, human. The text has this:
19 depressed subjects were recruited through advertisements and clinical referrals for a treatment study at Massachusetts General Hospital between 2001 and 2003, and underwent ^31P MRS scans before and after antidepression treatment. All 19 depressed subjects were between ages of 18 and 65, and suffered from MDD, as determined by pre-antidepression treatment score of ≧16 on the HAMD-17 scale. All 19 MDD subjects had previously shown minimal or no response to treatment with an SSRI taken for ≧8 weeks, with ≧4 weeks at a stable dose (fluoxetine ≧40 mg/day, sertraline ≧100 mg/day, paroxetine ≧40 mg/day, citalopram ≧40 mg/day, escitalopram ≧20 mg/day).
The HAMD-17 scale was administered every 2 weeks.
Nonparametric Wilcoxon rank sum (Mann-Whitney U) test was used to compare baseline levels of ^31P MRS metabolites between MDD subjects and normal control subjects. Clinical outcome was defined as response to treatment (HAMD-17 reduction ≧50% during treatment).

Where “and” joins values, the source holds several entries; their conditions need not be identical. Equal entries are not always repeated.

With `N[C@@H](Cc1cc(I)c(Oc2ccc(O)c(I)c2)c(I)c1)C(=O)O` [T3, triiodothyronine], the “Final TSH” value in test [1] is listed as “.10 ± .24 mIU/L”. Further, the “mean severity of depression HAMD-17 after 4 weeks of treatment” value in test [2] (MDD subjects n=19, T3 50 μg daily added to existing SSRI, baseline HAMD-17 20.3±3.6) worked out at 13.3±6.6. Besides, in test [2] (MDD subjects, T3 50 μg daily added to SSRI, 4 weeks, seven subjects), the “treatment responders (HAMD-17 reduction ≧50%)” value was 38.9% and 36.8%. Moreover, the “clinical remission (final HAMD-17<7)” value in test [2] (MDD subjects, T3 50 μg daily added to SSRI, 4 weeks, six subjects) stood at 31.6%.
